Experimental findings from paper PMC8709388, “In Search of Small Molecules That Selectively Inhibit MBOAT4” (Molecules, 2021) are described below.

This assay addresses T1, mouse GOAT (Mus musculus, UniProt P0C7A3).
T1 construct: made in house; host or cells: sf9 insect cells (baculovirus, pFastBac1-mouseGOAT); total membrane fraction, not purified
T1 sequence (P0C7A3 1-435): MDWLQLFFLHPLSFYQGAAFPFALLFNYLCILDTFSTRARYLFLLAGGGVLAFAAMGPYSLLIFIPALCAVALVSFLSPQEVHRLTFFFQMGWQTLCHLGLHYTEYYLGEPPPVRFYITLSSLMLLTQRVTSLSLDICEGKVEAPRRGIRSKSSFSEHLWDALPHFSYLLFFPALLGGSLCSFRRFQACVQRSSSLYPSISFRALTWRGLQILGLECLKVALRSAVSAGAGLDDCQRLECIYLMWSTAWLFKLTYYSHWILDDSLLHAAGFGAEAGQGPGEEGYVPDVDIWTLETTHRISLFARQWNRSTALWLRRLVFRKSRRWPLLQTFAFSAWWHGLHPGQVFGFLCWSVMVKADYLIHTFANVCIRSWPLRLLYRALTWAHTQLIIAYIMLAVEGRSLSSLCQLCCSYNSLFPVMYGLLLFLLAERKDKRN
As to the kind of experiment: Acyltransferase assay: inhibition of proghrelin octanoylation by GOAT in sf9 membrane fractions. It counts as biochemical. As to conditions: for IC50: sf9 membranes containing mouse GOAT, [3H]octanoyl CoA, proghrelin8His, read-out: IC50 (GOAT, membrane fraction, in-house); for GOAT inhibition in vitro (in words): membrane fractions. Here is the method:
pFastBac1-mouseGOAT and pGEX-GST-proGhrelin8His plasmid encoding for mouse proghrelin, fused to GST with TEV cleavage site to release proghrelin moiety, was a kind gift from the Brown and Goldstein laboratory. The BL21Gold E. coli chemically competent cells were transformed with the pGEX-GST-proGhrelin8His plasmid and selected on agar plates with ampicillin. A few colonies were used to inoculate 50 mL LB, and cultures were grown overnight at 37 °C. The next morning, 10 mL of overnight culture was used to inoculate 1L LB. A total of 4 flasks with 1L LB each were inoculated with 10 mL of the overnight culture, and bacterial cultures were grown at 37 °C until they reached OD600 ~ 0.6. The cultures were chilled on ice for 30 min and then 0.25 mM of IPTG was added to each culture. The cultures were then moved back to a shaker set to 18 °C and incubated overnight. Cells were harvested and resuspended in 200 mL buffer containing 25 mM Tris-HCl pH 8.0, 150 mM NaCl, 1 mM EDTA and 0.5 mg/mL lysozyme. The cell suspension was sonicated, and cell debris was removed by centrifugation. The soluble fraction was passed through glutathione resin by gravity. The resin was washed with 75 mL of lysis buffer without lysozyme. The GST-proGhrelin8His protein was eluted with lysis buffer without lysozyme, supplemented with 15 mM reduced glutathione, GSH. About 50 mg of target protein, as evaluated by SDS-PAGE, was eluted. The eluate was supplemented with 1 mM DTT and about 7.5 mg of recombinant GST-TEV protease (see below) was added. The solution was incubated at 16 °C overnight to allow complete release of proghrelin8His from GST. Prior to Ni-NTA chromatography, 5 mM CaCl2 was added, and the solution was spun down at 4000× g for 10 min. After elution from Ni-NTA resin, protein solution was dialyzed against buffer containing 10 mM Tris-HCl pH 8.5, 50 mM NaCl, 10% glycerol and 0.01% CHAPS using 3 kDa cutoff membrane with 3 buffer exchanges. The protein was quantified by absorbance at A280 and qualified by SDS-PAGE.
The baculovirus expression of mouse GOAT. DH10Bac E. coli strain (ThermoFisher, Waltham, MA, USA) was transformed with pFastBac1-mouseGOAT plasmid, and Bacmid DNA from 12 white colonies was analyzed by DNA sequencing and PCR reaction. All clones were transfected to sf9 cells and level of mGOAT expression was compared between clones from cells producing P2. The clone with the highest mGOAT expression level was used to produce P3. For membrane isolation, sf9 cells were seeded at 2–4 × 10^6 /mL in total 1 L volume of sf-900 serum-free medium (ThermoFisher) and infected with P3 virus. At day 2 post-infection, cells were harvested and resuspended in 40 mL of buffer containing 50 mM NaPi pH 7.2, 150 mM NaCl, 1 mM EDTA, 100 μM bis (4-nitrophenyl) phosphate, 2.5 μg/mL aprotinin, 10 μg/mL leupeptin, 10 μg/mL pepstatin A. Cell suspension was briefly sonicated and cell debris was removed by centrifugation at 3000× g for 10 min. Membrane fraction was collected from supernatant by centrifugation at 100,000× g for 1 h. Membrane pellet was resuspended in storage buffer (50 mM NaPi pH 7.2, 150 mM NaCl and 10% glycerol) and kept at −80 °C. Acyltransferase assay: The assay conditions included per 50 μL reaction: 50 μg of total sf9 membranes, various (for modality experiment) or fixed (for IC50) concentrations of recombinant proghrelin8His peptide and various concentrations of tested compound (for IC50), 100 μM palmitoyl CoA, 50 mM HEPES pH 7.0 and 1 μM [^3H] octanoyl CoA (~5.5 dpm/fmol—American Radioactive Chemicals). After incubation of the reaction mixture at 37C for 10 min, tubes were placed on ice and 10 μL of 1M HCl was added to each tube. Following the addition of 740 μL of cold quench buffer (50 mM NaPi pH 7.4, 10 mM Imidazole, 150 mM NaCl, 100 μM bis (4-nitrophenyl) phosphate, 1 mM phenylmethylsulfonyl fluoride and 0.1% Triton), 0.2 mL of 50% Ni-NTA slurry was added to each reaction. […]

SMILES strings stand for the structures.

Broadly, the IC50 is the point on the concentration scale where inhibition reaches its midpoint. Turning to `Cc1nc(Cl)nc(N)c1CCC1CCN(C(=O)[C@H](C)NC(=O)c2ccnn2C)CC1` [compound 5], the IC50 was found to be 88 nM.
With `CNC(=O)c1cccc(Cc2c(C)nc3nonc3c2N)n1` [compound 6, reference compound], the IC50 was found to be 64 nM.
As for `CCCCOCC(=O)N1CCC(CCc2c(C)nc3nonc3c2N)CC1` [compound 10, 1-(4-(2-(7-amino-5-methyl-[1,2,5]oxadiazolo[3,4-b]pyridin-6-yl)ethyl)piperidin-1-yl)-2-butoxyethan-1-one], the “GOAT inhibition in vitro (in words)” value was “as potently as did 5 and 6”; the IC50 was 63 nM.
Regarding `Cc1nc2nonc2c(N)c1CCC1CCN(C(=O)[C@H](C)NC(=O)c2ccnn2C)CC1` [compound 11, (S)-N-(1-(4-(2-(7-amino-5-methyl-[1,2,5]oxadiazolo[3,4-b]pyridin-6-yl)ethyl)pip-eridin-1-yl)-1-oxopropan-2-yl)-1-methyl-1H-pyrazole-5-carboxamide], the “GOAT inhibition in vitro (in words)” value was “as potently as did 5 and 6”; the IC50 was 84 nM.
